Measurements reported in patent US6475993B2 (Universite Laval, priority 1998, dated 2002).

Columns and labels:
dystrophin = assay: Dystrophin immunohistochemistry in skeletal muscle and heart of mdx mice treated with gentamicin; type: in vivo; conditions: for Dystrophin staining intensity: 7 days
Method: All mice were then sacrificed, their skeletal muscle and their heart were frozen and cryostat sectioned. The presence of dystrophin in these sections was investigated by immunohistochemistry. […] In the untreated mdx muscles, dystrophin immunostaining was observed only in a few revertant fibers (Hoffman et al. 1990). […] The dystrophin staining was less intense in the muscles of mice treated with 1 mg/kg. […] The duration of treatment may vary.

mdx mice = assay: Toxicity signs in mdx mice treated with gentamicin; type: in vivo
Description: Further, any mean by which gentamicin or gentamicin-like or derived molecules can be driven more directly to the site of action is within the scope of this invention.

CFTR protein = conditions: gentamicin 200 mg/mL (so in the source), incubation 18 to 24 hours; Howard et al. 1996; cited from earlier work

## gentamicin
dystrophin; Sub-cutaneous or intra-muscular daily treatments of 7 to 14 days or longer
  Success of daily treatments of other route or duration: equivalently successful
dystrophin; mdx mice, I.M. 5 mg/day gentamicin, some muscles
  Dystrophin staining intensity: as intense as that observed in the normal mouse muscles
dystrophin; mdx mice, I.M. gentamicin 1 mg/day or 5 mg/day during 7 days, skeletal muscle and heart cryostat sections
  Presence of dystrophin by immunohistochemistry: detected by immunohistochemistry on all muscle fibers and all heart muscle cells
dystrophin; mdx mice, I.M. gentamicin, printed 1 mg/kg
  Dystrophin staining intensity: less intense
dystrophin; mdx mice, dose of 8 to 40 mg per Kg of body weight per day
  Suppression of premature stop codon in vivo: successfully suppressed the premature stop codon
Mdx mice
  Toxicity signs: No toxicity signs appeared
CFTR protein
  Suppression of premature stop mutation in CFTR gene (full-length CFTR protein): permitted to suppress the premature stop mutation
